Each structure is given as a SMILES string.

Consider 27 molecules from ChEMBL document CHEMBL4806958, “Anti-cancer/anti-fibrosis compounds” (2020).

The target in experiment [1] is Casein kinase II subunit alpha (Homo sapiens, UniProt P68400). Nature of the experiment: Inhibition of CSNK2A1(unknown origin) using Ser/Thr 11 as substrate incubated for 60 mins in presence of ATP by Z'-LYTE assay.
Experiment [2] deals with Homeodomain-interacting protein kinase 2 (Homo sapiens, UniProt Q9H2X6). Nature of the experiment: Inhibition of HIPK2 (unknown origin) using Ser/Thr 09 as substrate incubated for 60 mins in presence of ATP by Z'-Lyte assay.
Homeodomain-interacting protein kinase 2, sequence (Q9H2X6 whole entry): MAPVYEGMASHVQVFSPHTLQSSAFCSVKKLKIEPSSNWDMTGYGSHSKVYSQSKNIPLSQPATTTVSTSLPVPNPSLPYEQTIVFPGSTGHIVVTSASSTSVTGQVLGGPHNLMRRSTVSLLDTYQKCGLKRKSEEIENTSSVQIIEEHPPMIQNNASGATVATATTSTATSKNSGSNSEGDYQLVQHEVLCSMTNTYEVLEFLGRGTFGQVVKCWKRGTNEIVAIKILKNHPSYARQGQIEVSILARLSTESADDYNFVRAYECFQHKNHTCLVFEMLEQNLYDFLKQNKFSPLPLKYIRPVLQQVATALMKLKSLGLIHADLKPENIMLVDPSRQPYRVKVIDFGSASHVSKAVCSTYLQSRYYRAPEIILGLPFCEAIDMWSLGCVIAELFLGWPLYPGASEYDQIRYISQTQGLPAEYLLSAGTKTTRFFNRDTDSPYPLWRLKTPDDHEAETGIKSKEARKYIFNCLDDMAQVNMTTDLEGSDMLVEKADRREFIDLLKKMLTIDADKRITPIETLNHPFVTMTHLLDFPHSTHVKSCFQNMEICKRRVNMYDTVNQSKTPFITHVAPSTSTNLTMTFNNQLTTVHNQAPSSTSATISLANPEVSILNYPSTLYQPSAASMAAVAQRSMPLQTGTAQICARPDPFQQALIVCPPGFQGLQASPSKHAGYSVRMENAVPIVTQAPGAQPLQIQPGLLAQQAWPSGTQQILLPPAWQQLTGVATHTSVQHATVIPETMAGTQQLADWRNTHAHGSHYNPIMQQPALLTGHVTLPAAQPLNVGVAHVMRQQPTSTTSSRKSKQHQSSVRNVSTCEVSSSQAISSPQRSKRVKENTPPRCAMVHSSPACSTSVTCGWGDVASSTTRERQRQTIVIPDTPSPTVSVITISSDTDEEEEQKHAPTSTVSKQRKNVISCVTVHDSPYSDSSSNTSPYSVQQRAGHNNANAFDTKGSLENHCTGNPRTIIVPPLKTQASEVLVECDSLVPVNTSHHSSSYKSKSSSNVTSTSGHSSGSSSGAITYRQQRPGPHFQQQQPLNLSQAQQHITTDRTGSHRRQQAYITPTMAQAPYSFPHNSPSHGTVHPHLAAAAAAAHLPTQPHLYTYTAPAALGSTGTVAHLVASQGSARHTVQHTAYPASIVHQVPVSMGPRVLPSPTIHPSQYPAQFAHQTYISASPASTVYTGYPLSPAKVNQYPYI

Casein kinase II subunit alpha, sequence (P68400 whole entry): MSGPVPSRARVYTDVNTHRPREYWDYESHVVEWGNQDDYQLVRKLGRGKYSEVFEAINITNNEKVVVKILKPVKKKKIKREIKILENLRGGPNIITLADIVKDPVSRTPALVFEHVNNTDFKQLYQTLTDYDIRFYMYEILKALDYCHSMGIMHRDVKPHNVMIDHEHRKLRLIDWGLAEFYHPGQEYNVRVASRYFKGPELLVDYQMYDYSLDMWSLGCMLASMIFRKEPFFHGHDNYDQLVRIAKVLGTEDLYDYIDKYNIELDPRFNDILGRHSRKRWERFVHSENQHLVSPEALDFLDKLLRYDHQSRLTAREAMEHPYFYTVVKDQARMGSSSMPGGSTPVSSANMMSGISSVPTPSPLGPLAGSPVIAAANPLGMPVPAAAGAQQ

One may read the IC50 as the concentration that inhibits the measured activity by half. For `O=C(O)c1ccc2c(c1)cc(NC1CCCCC1)c1ccncc12`, the IC50 in experiment [1] is less than 300 nM.

In the case of `CC(C)Nc1cc2cc(C(=O)O)ccc2c2cnccc12`, the IC50 in experiment [1] was less than 300 nM.

On to `O=C(O)c1ccc2c(ccc3ccnc(Cl)c32)c1`, for which the IC50 in experiment [1] was less than 300 nM.

For the molecule `O=C(O)c1ccc2c(c1)cc(Br)c1ccnc(Cl)c12`, the half-maximal inhibitory concentration (IC50) in experiment [1] is less than 300 nM.

As for `N[C@@H]1CCCN(c2cc3cc(C(=O)O)ccc3c3cnccc23)C1`, the IC50 in experiment [2] is greater than 5000 nM; in experiment [1], less than 300 nM.

With `CCC(C)Nc1cc2cc(C(=O)O)ccc2c2cnccc12` (stereo unspecified), in experiment [1], the IC50 was less than 300 nM.

`O=C(O)c1ccc2c(c1)cc([N+](=O)[O-])c1ccncc12`: in experiment [1], the IC50 was less than 300 nM.

For the molecule `O=C(O)c1ccc2c(c1)cc(NC1CC1)c1ccncc12`, the IC50 in experiment [2] and in experiment [1] was less than 300 nM in each case.

In the case of `Nc1ccc(-c2cc3cc(C(=O)O)ccc3c3cnccc23)cn1`, the half-inhibitory concentration (IC50) in experiment [1] was less than 300 nM.

Regarding `O=C(O)c1ccc2c(c1)cc(NC1CCC1)c1ccncc12`, the IC50 in experiment [1] is less than 300 nM.

For the molecule `O=C(O)c1ccc2c(c1)cc(-c1cc[nH]n1)c1ccncc12`, in experiment [1], the IC50 is less than 300 nM.

Regarding `Cc1cc2cc(C(=O)O)ccc2c2cnccc12`, the IC50 in experiment [1] was less than 300 nM.

For the molecule `O=C(O)c1ccc2c(c1)cc(Nc1cccc(Cl)c1)c1ccncc12`, the IC50 in experiment [1] was less than 300 nM.

`O=C(O)c1ccc2c(c1)cc(Br)c1ccncc12`: the IC50 in experiment [2] and in experiment [1] was less than 300 nM each time.

With `O=C(O)c1ccc2c(ccc3ccncc32)c1`, in experiment [1], the IC50 was less than 300 nM.

As for `O=C(O)c1ccc2c(c1)cc(N1CCCCC1)c1ccncc12`, the IC50 in experiment [1] is less than 300 nM.

Consider `O=C(O)c1ccc2c(c1)cc(Br)c1cc(Cl)ncc12`, for which the IC50 in experiment [2] is greater than 5000 nM.

In the case of `O=C(O)c1ccc2c(c1)cc(C1CC1)c1ccncc12`, in experiment [1], the IC50 was less than 300 nM.

For the molecule `N#Cc1cc2cc(C(=O)O)ccc2c2cnccc12`, the IC50 in experiment [1] is less than 300 nM.

For `Nc1nccc2cc(Br)c3cc(C(=O)O)ccc3c12`, the concentration for half-maximal inhibition (IC50) in experiment [2] is less than 300 nM.

As for `O=C(O)c1ccc2c(c1)cc(-c1cccnc1)c1ccncc12`, in experiment [1], the half-maximal inhibitory concentration (IC50) is less than 300 nM.

In the case of `O=C(O)c1ccc2c(c1)cc(Cl)c1ccncc12`, in experiment [1], the IC50 is less than 300 nM.

With `O=C(O)c1ccc2c(c1)cc(Nc1ccc(Cl)cc1)c1ccncc12`, the IC50 in experiment [1] is less than 300 nM.

Turning to `O=C(O)c1ccc2c(c1)cc(-c1ccncc1)c1ccncc12`, in experiment [1], the half-maximal inhibitory concentration (IC50) was less than 300 nM.

On to `O=C(O)c1ccc2c(c1)cc(NC1CCCC1)c1ccncc12`, for which the IC50 in experiment [1] is less than 300 nM.

For the molecule `CC[C@H](C)Nc1cc2cc(C(=O)O)ccc2c2cnccc12`, the IC50 in experiment [1] is less than 300 nM.

Take `CC[C@@H](C)Nc1cc2cc(C(=O)O)ccc2c2cnccc12`: the IC50 in experiment [2] and in experiment [1] was less than 300 nM throughout.
